# Data as given in ChEMBL document CHEMBL5241112, “Insights into the recent progress in the medicinal chemistry of pyranopyrimidine analogs” (RSC Med Chem, 2022).
# pIC50: −log10 of the molar value.
# Tests used:
# Escherichia coli [1] = assay: Antimicrobial activity against Escherichia coli assessed as diameter of inhibition zone at 1.2 mg/ml incubated for 12 hrs by agar disk diffusion method; format: functional
# Pseudomonas aeruginosa [2] = assay: Antimicrobial activity against Pseudomonas aeruginosa assessed as diameter of inhibition zone at 5.0 mg/ml incubated for 12 hrs by agar disk diffusion method; format: functional
# Escherichia coli [3] = assay: Antibacterial activity against Escherichia coli ATCC 25922 assessed as inhibition of bacterial growth incubated for 24 hrs by broth macrodilution method; format: functional
# Staphylococcus aureus [4] = assay: Antimicrobial activity against Staphylococcus aureus assessed as diameter of inhibition zone at 2.5 mg/ml incubated for 12 hrs by agar disk diffusion method; format: functional
# Staphylococcus aureus [5] = assay: Antimicrobial activity against Staphylococcus aureus assessed as diameter of inhibition zone at 5.0 mg/ml incubated for 12 hrs by agar disk diffusion method; format: functional
# Escherichia coli [6] = assay: Antibacterial activity against Escherichia coli ATCC 25922 assessed as diameter of inhibition zone incubated for 24 hrs by disc diffusion assay; format: functional
# Pseudomonas aeruginosa [7] = assay: Antibacterial activity against Pseudomonas aeruginosa ATCC 27853 assessed as diameter of inhibition zone incubated for 24 hrs by disc diffusion assay; format: functional
# Bacillus cereus [8] = assay: Antimicrobial activity against Bacillus cereus assessed as diameter of inhibition zone at 5.0 mg/ml incubated for 12 hrs by agar disk diffusion method; format: functional
# Staphylococcus aureus [9] = assay: Antimicrobial activity against Staphylococcus aureus assessed as diameter of inhibition zone at 1.2 mg/ml incubated for 12 hrs by agar disk diffusion method; format: functional
# Bacillus cereus [10] = assay: Antimicrobial activity against Bacillus cereus assessed as diameter of inhibition zone at 2.5 mg/ml incubated for 12 hrs by agar disk diffusion method; format: functional
# Pseudomonas aeruginosa [11] = assay: Antimicrobial activity against Pseudomonas aeruginosa assessed as diameter of inhibition zone at 1.2 mg/ml incubated for 12 hrs by agar disk diffusion method; format: functional
# Bacillus cereus [12] = assay: Antimicrobial activity against Bacillus cereus assessed as diameter of inhibition zone at 1.2 mg/ml incubated for 12 hrs by agar disk diffusion method; format: functional
# Escherichia coli [13] = assay: Antimicrobial activity against Escherichia coli assessed as diameter of inhibition zone at 5.0 mg/ml incubated for 12 hrs by agar disk diffusion method; format: functional
# Escherichia coli [14] = assay: Antimicrobial activity against Escherichia coli assessed as diameter of inhibition zone at 2.5 mg/ml incubated for 12 hrs by agar disk diffusion method; format: functional
# Pseudomonas aeruginosa [15] = assay: Antibacterial activity against Pseudomonas aeruginosa ATCC 27853 assessed as inhibition of bacterial growth incubated for 24 hrs by broth macrodilution method; format: functional
# Pseudomonas aeruginosa [16] = assay: Antimicrobial activity against Pseudomonas aeruginosa assessed as diameter of inhibition zone at 2.5 mg/ml incubated for 12 hrs by agar disk diffusion method; format: functional
# Aspergillus niger [17] = assay: Antifungal activity against Aspergillus niger ATCC 6275 assessed as inhibition of […] growth incubated for 7 days by broth macrodilution method; format: functional; details: ATCC 6275, 168 h, time 7 day
# HCT-116 = assay: cells; details: Homo sapiens
# MCF7 [18] = assay: Anticancer activity against human MCF7 cells assessed as reduction in cell viability; format: functional, cell-based
# HepG2 = assay: Anticancer activity against human HepG2 cells assessed as reduction in cell viability; format: functional, cell-based
# Aspergillus niger [19] = assay: Antifungal activity against Aspergillus niger ATCC 6275 assessed as diameter of inhibition zone incubated for 7 days by disc diffusion assay; format: functional; details: time 7 day
# [20] = molecular target: Hydroxycarboxylic acid receptor 2 (Homo sapiens, UniProt Q8TDS4); assay: Agonist activity at human HCA2 expressed in human Flp-In-293 cells assessed as inhibition of forskolin-stimulated cAMP accumulation at 50 uM incubated for 30 mins by Lance cAMP assay; format: cell-based; details: filed as agonist
# Sequence of Hydroxycarboxylic acid receptor 2 (Q8TDS4 whole entry, the tested form may be a part): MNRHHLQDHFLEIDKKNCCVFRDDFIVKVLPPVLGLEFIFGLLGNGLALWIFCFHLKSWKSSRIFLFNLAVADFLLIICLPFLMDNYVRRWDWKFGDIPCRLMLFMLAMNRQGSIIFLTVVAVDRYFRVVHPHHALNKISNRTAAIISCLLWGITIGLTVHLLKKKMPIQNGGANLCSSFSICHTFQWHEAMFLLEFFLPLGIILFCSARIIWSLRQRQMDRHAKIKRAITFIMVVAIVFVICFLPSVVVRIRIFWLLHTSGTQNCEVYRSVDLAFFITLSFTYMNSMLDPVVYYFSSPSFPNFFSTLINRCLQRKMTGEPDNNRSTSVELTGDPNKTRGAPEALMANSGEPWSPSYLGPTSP
# Bacillus subtilis [21] = assay: Antimicrobial activity against Bacillus subtilis assessed as diameter of inhibition zone by agar well diffusion method; format: functional
# Escherichia coli [22] = assay: Antimicrobial activity against Escherichia coli assessed as diameter of inhibition zone by agar well diffusion method; format: functional
# Bacillus subtilis [23] = assay: Antibacterial activity against Bacillus subtilis ATCC 6633 assessed as inhibition of bacterial growth incubated for 24 hrs by broth macrodilution method; format: functional
# DNA = assay: Binding affinity to DNA (unknown origin) assessed as DNA intercalation; format: nucleic-acid assay
# Staphylococcus aureus [24] = assay: Antibacterial activity against Staphylococcus aureus ATCC 25923 assessed as diameter of inhibition zone incubated for 24 hrs by disc diffusion assay; format: functional
# DNA topoisomerase II = DNA topoisomerase II (Homo sapiens, UniProt P11388+Q02880); assay: Inhibition of DNA topoisomerase 2 (unknown origin); format: protein assay
# Bacillus subtilis [25] = assay: Antibacterial activity against Bacillus subtilis ATCC 6633 assessed as diameter of inhibition zone incubated for 24 hrs by disc diffusion assay; format: functional
# Staphylococcus aureus [26] = assay: Antibacterial activity against Staphylococcus aureus ATCC 25923 assessed as inhibition of bacterial growth incubated for 24 hrs by broth macrodilution method; format: functional
# [27] = Antioxidant activity assessed as DPPH radical scavenging activity at 25 ug/ml incubated for 30 mins by spectrophotometric analysis; format: functional; details: dose 25.0 µg/ml
# OVCAR-3 [28] = assay: Anticancer activity against human OVCAR-3 cells assessed as lethality by sulforhodamine B assay; format: functional; details: read-out: LC50 (the source's name)
# PC-3 [29] = assay: Anticancer activity against human PC-3 cells assessed as tumor growth inhibition by sulforhodamine B assay; format: functional
# MDA-MB-435 [30] = assay: Anticancer activity against human MDA-MB-435 cells assessed as cell growth inhibition by sulforhodamine B assay; format: functional
# PC-3 [31] = assay: Anticancer activity against human PC-3 cells assessed as cell growth inhibition by sulforhodamine B assay; format: functional
# PC-3 [32] = assay: Anticancer activity against human PC-3 cells assessed as lethality by sulforhodamine B assay; format: functional; details: read-out: LC50 (the source's name)
# MDA-MB-435 [33] = assay: Anticancer activity against human MDA-MB-435 cells assessed as tumor growth inhibition by sulforhodamine B assay; format: functional
# OVCAR-3 [34] = assay: Anticancer activity against human OVCAR-3 cells assessed as tumor growth inhibition by sulforhodamine B assay; format: functional
# MDA-MB-435 [35] = assay: Anticancer activity against human MDA-MB-435 cells assessed as lethality by sulforhodamine B assay; format: functional; details: read-out: LC50 (the source's name)
# OVCAR-3 [36] = assay: Anticancer activity against human OVCAR-3 cells assessed as cell growth inhibition by sulforhodamine B assay; format: functional
# HeLa = assay: Anticancer activity against human HeLa cells assessed as reduction in cell viability incubated for 48 hrs by MTT assay; format: functional, cell-based
# MCF7 [37] = assay: cells; details: Homo sapiens, MCF7, 48 h
# [38] = Antioxidant activity assessed as DPPH radical scavenging activity at 50 ug/ml incubated for 30 mins by spectrophotometric analysis; format: functional; details: dose 50.0 µg/ml
# [39] = Antioxidant activity assessed as DPPH radical scavenging activity at 75 ug/ml incubated for 30 mins by spectrophotometric analysis; format: functional; details: dose 75.0 µg/ml
# [40] = Antioxidant activity assessed as DPPH radical scavenging activity at 100 ug/ml incubated for 30 mins by spectrophotometric analysis; format: functional; details: dose 100.0 µg/ml
molecule,measurement,setting,value
GENTAMICIN,inhibition zone (IZ),Escherichia coli [1],11 mm
same,inhibition zone (IZ),Pseudomonas aeruginosa [2],18 mm
same,MIC,Escherichia coli [3],3.68 µg/mL
same,inhibition zone (IZ),Staphylococcus aureus [4],14 mm
same,inhibition zone (IZ),Staphylococcus aureus [5],18 mm
same,inhibition zone (IZ),Escherichia coli [6],21.3 mm
same,inhibition zone (IZ),Pseudomonas aeruginosa [7],17.3 mm
same,inhibition zone (IZ),Bacillus cereus [8],18 mm
same,inhibition zone (IZ),Staphylococcus aureus [9],11 mm
same,inhibition zone (IZ),Bacillus cereus [10],14 mm
same,inhibition zone (IZ),Pseudomonas aeruginosa [11],11 mm
same,inhibition zone (IZ),Bacillus cereus [12],11 mm
same,inhibition zone (IZ),Escherichia coli [13],18 mm
same,inhibition zone (IZ),Escherichia coli [14],14 mm
same,MIC,Pseudomonas aeruginosa [15],15.4 µg/mL
same,inhibition zone (IZ),Pseudomonas aeruginosa [16],14 mm
COc1ccc(C2c3c([nH]c(=O)[nH]c3=O)Oc3ncn(-c4cc(C)ccn4)c(=N)c32)cc1 (configuration not stated),MIC,Aspergillus niger [17],15.4 µg/mL
same,MIC,Escherichia coli [3],0.781 µg/mL
same,pIC50,HCT-116,5.58
same,diameter of the inhibition zone (DIZ),Escherichia coli [6],18.1 mm
same,pIC50,MCF7 [18],5.61
same,diameter of the inhibition zone (DIZ),Pseudomonas aeruginosa [7],17.3 mm
same,pIC50,HepG2,5.68
same,diameter of the inhibition zone (DIZ),Aspergillus niger [19],17.2 mm
same,MIC,Pseudomonas aeruginosa [15],3.12 µg/mL
O=C(CSc1nc(=O)c2c(CCCCCl)cc(=O)oc2[nH]1)Oc1ccccc1,Emax,[20],85%
CC(C)c1ccc(C2C(C#N)=C(N)Oc3[nH]c(=O)[nH]c(=O)c32)cc1 (configuration not stated),diameter of the inhibition zone (DIZ),Bacillus subtilis [21],13 mm
same,diameter of the inhibition zone (DIZ),Escherichia coli [22],10.8 mm
CCC(C)n1cnc2c(c1=N)C(c1ccc(OC)cc1)c1c([nH]c(=O)[nH]c1=O)O2 (configuration not stated),pIC50,HCT-116,5.58
same,MIC,Bacillus subtilis [23],0.097 µg/mL
same,pIC50,DNA,4.57
same,diameter of the inhibition zone (DIZ),Staphylococcus aureus [24],20.8 mm
same,pIC50,MCF7 [18],5.61
same,IC50,DNA topoisomerase II,752 nM
same,diameter of the inhibition zone (DIZ),Bacillus subtilis [25],26 mm
same,pIC50,HepG2,5.68
same,MIC,Staphylococcus aureus [26],1.56 µg/mL
NC(=O)C1=C(N)Oc2[nH]nc(-c3ccccc3)c2C1c1coc2ccccc2c1=O (configuration not stated),Activity,[27],62.5%
N#CC1=C(N)Oc2[nH]c(=O)[nH]c(=O)c2C1c1ccco1 (configuration not stated),CC50,OVCAR-3 [28],> 100000 nM
same,TGI,PC-3 [29],98.8%
same,GI50,MDA-MB-435 [30],> 100000 nM
same,GI50,PC-3 [31],> 100000 nM
same,CC50,PC-3 [32],> 100000 nM
same,TGI,MDA-MB-435 [33],>100%
same,TGI,OVCAR-3 [34],>100%
same,CC50,MDA-MB-435 [35],> 100000 nM
same,GI50,OVCAR-3 [36],> 100000 nM
COc1cccc2c1C(=O)c1c(O)c3c(c(O)c1C2=O)C[C@@](O)(C(=O)CO)C[C@@H]3O[C@H]1C[C@H](N)[C@H](O)[C@H](C)O1.Cl [DOXORUBICIN HYDROCHLORIDE],CC50,OVCAR-3 [28],> 100000 nM
same,pIC50,HeLa,> 5.00
same,TGI,PC-3 [29],76.7%
same,GI50,MDA-MB-435 [30],< 100 nM
same,pIC50,MCF7 [37],> 5.00
same,GI50,PC-3 [31],< 100 nM
same,CC50,PC-3 [32],> 100000 nM
same,TGI,MDA-MB-435 [33],5.5%
same,TGI,OVCAR-3 [34],56.3%
same,CC50,MDA-MB-435 [35],91800 nM
same,GI50,OVCAR-3 [36],< 100 nM
O=c1c(C2c3c(-c4ccccc4)n[nH]c3Oc3[nH]c(=S)n(-c4ccccc4)c(=S)c32)coc2ccccc12 (configuration not stated),Activity,[27],61.6%
same,Activity,[38],66.4%
COc1ccc(C2c3c([nH]c(=O)[nH]c3=O)Oc3ncn(C(N)=O)c(=N)c32)cc1 (configuration not stated),pIC50,HCT-116,5.58
same,MIC,Bacillus subtilis [23],0.097 µg/mL
same,diameter of the inhibition zone (DIZ),Staphylococcus aureus [24],21.7 mm
same,pIC50,MCF7 [18],5.61
same,diameter of the inhibition zone (DIZ),Bacillus subtilis [25],26 mm
same,pIC50,HepG2,5.68
same,MIC,Staphylococcus aureus [26],0.781 µg/mL
O=c1c(C2c3c(-c4ccccc4)n[nH]c3Oc3[nH]c(=S)[nH]c(=S)c32)coc2ccccc12 (configuration not stated),Activity,[39],84.3%
same,Activity,[38],66.5%
same,Activity,[40],86.4%
C[C@@H]1[C@H](O)[C@@H](C)/C=C/C=C/C=C/C=C/C=C/C=C/C=C/[C@H](O[C@@H]2O[C@H](C)[C@@H](O)[C@H](N)[C@@H]2O)C[C@@H]2O[C@](O)(C[C@@H](O)C[C@@H](O)[C@H](O)CC[C@@H](O)C[C@@H](O)CC(=O)O[C@H]1C)C[C@H](O)[C@H]2C(=O)O [AMPHOTERICIN B],MIC,Aspergillus niger [17],0.781 µg/mL
same,diameter of the inhibition zone (DIZ),Aspergillus niger [19],26.3 mm
C[C@H]1COc2c(N3CCN(C)CC3)c(F)cc3c(=O)c(C(=O)O)cn1c23.C[C@H]1COc2c(N3CCN(C)CC3)c(F)cc3c(=O)c(C(=O)O)cn1c23.O [LEVOFLOXACIN],diameter of the inhibition zone (DIZ),Bacillus subtilis [21],26 mm
same,diameter of the inhibition zone (DIZ),Escherichia coli [22],29.35 mm
NC(=O)CSc1nc(=O)c2c(CCCCCl)cc(=O)oc2[nH]1,Emax,[20],87%
COc1ccc(C2C(C#N)=C(N)Oc3[nH]c(=S)[nH]c(=O)c32)cc1 (configuration not stated),zone of inhibition at 1200 µg/mL,Escherichia coli [1]; read-out: DIZ,14 mm
same,zone of inhibition at 5000 µg/mL,Pseudomonas aeruginosa [2]; read-out: DIZ,30 mm
same,zone of inhibition at 2500 µg/mL,Staphylococcus aureus [4]; read-out: DIZ,16 mm
same,zone of inhibition at 5000 µg/mL,Staphylococcus aureus [5]; read-out: DIZ,20 mm
same,zone of inhibition at 5000 µg/mL,Bacillus cereus [8]; read-out: DIZ,22 mm
same,zone of inhibition at 1200 µg/mL,Staphylococcus aureus [9]; read-out: DIZ,12 mm
same,zone of inhibition at 2500 µg/mL,Bacillus cereus [10]; read-out: DIZ,18 mm
same,zone of inhibition at 1200 µg/mL,Pseudomonas aeruginosa [11]; read-out: DIZ,12 mm
same,zone of inhibition at 1200 µg/mL,Bacillus cereus [12]; read-out: DIZ,14 mm
same,zone of inhibition at 5000 µg/mL,Escherichia coli [13]; read-out: DIZ,30 mm
same,zone of inhibition at 2500 µg/mL,Escherichia coli [14]; read-out: DIZ,20 mm
same,zone of inhibition at 2500 µg/mL,Pseudomonas aeruginosa [16]; read-out: DIZ,17 mm
